Assay results as given in ChEMBL document CHEMBL1136467, “A simple stereoselective synthesis and biological evaluation of FR181157: orally active prostacyclin mimetic” (Bioorg Med Chem Lett, 2003).

Experiments:
[1] = species on record: Homo sapiens; assay: In vitro inhibition of ADP-induced platelet aggregation using human platelet rich plasma; assay type: functional
[2] = Pharmacokinetic property (F) was measured in dog at the dose of 0.032 mg/kg; assay type: ADME, organism-based, Canis lupus familiaris; design: dose 0.032 mg/kg; details: in vivo
[3] = Pharmacokinetic property (Cmax) was measured in dog at the dose of 0.032 mg/kg; assay type: ADME, organism-based, Canis lupus familiaris; design: dose 0.032 mg/kg; details: in vivo
[4] = Pharmacokinetic property (t1/2beta) was measured in dog at the dose of 0.032 mg/kg i.v.; assay type: ADME, organism-based, Canis lupus familiaris; design: dose 0.032 mg/kg, route intravenous; details: in vivo, iv, read-out: T1/2 beta (converted)
[5] = Pharmacokinetic property (Tmax) was measured in rat at the dose of 0.32 mg/kg p.o.; assay type: ADME, organism-based; design: dose 0.32 mg/kg, route oral; details: in vivo, po
[6] = Pharmacokinetic property (AUC) was measured in dog at the dose of 0.032 mg/kg p.o.; assay type: ADME, organism-based, Canis lupus familiaris; design: dose 0.032 mg/kg, route oral; details: in vivo, po
[7] = Pharmacokinetic property (CLtot)of the compound was measured in rat at the dose of 0.32 mg/kg i.v.; assay type: ADME, organism-based; design: dose 0.32 mg/kg, route intravenous; details: in vivo, iv, read-out: CLtotal
[8] = Pharmacokinetic property (Tmax) was measured in dog at the dose of 0.032 mg/kg p.o.; assay type: ADME, organism-based, Canis lupus familiaris; design: dose 0.032 mg/kg, route oral; details: in vivo, po
[9] = Pharmacokinetic property (Cmax) was measured in rat at the dose of 0.32 mg/kg p.o.; assay type: ADME, organism-based; design: dose 0.32 mg/kg, route oral; details: in vivo, po
[10] = Pharmacokinetic property (CLtot) was measured in dog at the dose of 0.032 mg/kg i.v.; assay type: ADME, organism-based, Canis lupus familiaris; design: dose 0.032 mg/kg, route intravenous; details: in vivo, iv, read-out: CLtotal
[11] = Pharmacokinetic property (AUC) was measured in rat at the dose of 0.32 mg/kg p.o.; assay type: ADME, organism-based; design: dose 0.32 mg/kg, route oral; details: in vivo, po
[12] = species on record: Canis familiaris; assay: In vitro inhibition of ADP-induced platelet aggregation using dog platelet rich plasma; assay type: functional; details: Canis lupus familiaris
[13] = target: Prostacyclin receptor (Homo sapiens, UniProt P43119); assay: In vitro Prostacyclin (PGI-2) receptor binding assay was determined based on displacement of [3H]iloprost radioligand from cloned human IP receptor
[14] = species on record: Rattus norvegicus; assay: In vitro inhibition of ADP-induced platelet aggregation using rat platelet rich plasma; assay type: functional
[15] = Pharmacokinetic property (t1/2beta) was measured in rat at the dose of 0.32 mg/kg i.v.; assay type: ADME, organism-based; design: dose 0.32 mg/kg, route intravenous; details: in vivo, iv, read-out: T1/2 beta (converted)
[16] = Pharmacokinetic property (F) was measured in rat at the dose of 0.32 mg/kg; assay type: ADME, organism-based; design: dose 0.32 mg/kg; details: in vivo

Chain of Prostacyclin receptor (P43119 whole entry): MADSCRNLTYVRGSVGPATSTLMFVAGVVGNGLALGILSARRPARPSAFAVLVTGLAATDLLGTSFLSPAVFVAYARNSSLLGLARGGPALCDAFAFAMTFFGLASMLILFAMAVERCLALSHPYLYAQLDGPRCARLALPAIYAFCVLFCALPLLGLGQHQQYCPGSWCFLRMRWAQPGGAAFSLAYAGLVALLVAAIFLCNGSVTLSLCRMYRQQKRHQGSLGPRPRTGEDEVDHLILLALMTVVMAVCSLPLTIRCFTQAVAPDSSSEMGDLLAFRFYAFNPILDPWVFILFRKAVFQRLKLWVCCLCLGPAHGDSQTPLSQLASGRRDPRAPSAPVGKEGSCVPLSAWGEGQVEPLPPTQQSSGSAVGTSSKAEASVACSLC

## CC#CCC(C)[C@H](O)/C=C/[C@@H]1[C@H]2C/C(=C/CCCC(=O)O)C[C@H]2C[C@H]1O (some centres undefined) [ILOPROST]
[1]
  IC50: 2.5 nM

## O=C(O)COc1cccc(C[C@H]2CCCC=C2c2nc(-c3ccccc3)c(-c3ccccc3)o2)c1
[1]
  IC50: 110 nM

## O=C([O-])COc1cccc(C[C@@H]2CCCC=C2c2nc(-c3ccccc3)c(-c3ccccc3)o2)c1.[Na+]
[2]
  bioavailability: 72%
[3]
  Cmax: 38.7 ng/mL
[4]
  half-life: 26 h
[5]
  Tmax: 0.3 h
[6]
  AUC: 392 ng·h/mL
[7]
  clearance: 17.7 mL/min/kg
[8]
  Tmax: 2.3 h
[9]
  Cmax: 16.4 ng/mL
[10]
  clearance: 1.09 mL/min/kg
[11]
  AUC: 147 ng·h/mL
[12]
  IC50: 1300 nM
[1]
  IC50: 60 nM
[13]
  Ki: 54 nM
[14]
  IC50: 1200 nM
[15]
  half-life: 6.6 h
[16]
  bioavailability: 50%

## O=C(O)COc1cccc(CC2=C(c3nc(-c4ccccc4)c(-c4ccccc4)o3)CCCC2)c1
[1]
  IC50: 530 nM
